Laboratory results as given in PMC10718076, “1,2-Disubstituted bicyclo[2.1.1]hexanes as saturated bioisosteres of ortho-substituted benzene” (Chemical Science, 2023).
Like-named read-outs stand apart in the source and are kept apart here.

What was measured:
[1] = both, human, pH 7.4
in vitro = conditions: both, human

## O=C(O)Cc1ccccc1Nc1c(Cl)cccc1Cl [Diclofenac]
[1]; microsomes, 25 min, 2 µM
  % Remaining, Mean of 2: 9%
[1]; s9, 25 min, 2 μM
  % Remaining, Mean of 2: 9%
In vitro; microsomes, pH 7.4
  microsomal CLint at 2 µM: 173 µL/min/mg
  microsomal CLint at 2 μM: 272 µL/min/mg
In vitro; pH 7.4, kel
  k el at 2 µM: 0.0012 s⁻¹
  k el at 2 μM: 0.00123 s⁻¹
In vitro; s9, pH 7.4
  microsomal CLint at 2 μM: 178 µL/min/mg
